Read-outs that look alike come from different tables or passages of the source.
How the values were obtained:
[1] = tested on: hiPSC-derived 3D neurospheres; experiment: cells; format: cell-based, human; settings: for EC10 / EC25 / EC50: Homo sapiens, 72 h
Protocol: After thawing, NSCs (generated as detailed above) were cultured on POL/L (0.002%/1 µg/cm^2) coated plates (50,000 cells/cm^2). When reached 100% confluence NSCs were propagated with Accutase treatment and single-cell suspension was plated onto a low-adherent 96-well plate with 10,000 cells/well in NMM medium. […] Samples were collected at Day 0 (D0), Day 2 (D2), and weekly intervals from the end of the 1st week (D7) until the end of the 6th week (D14, D21, D28, D35, and D42).
Eleven well-known compounds were tested in 7 different concentrations to generate concentration-response curves. The tested compounds with the used concentrations are detailed in Table S3. […] In each assay plate, 4 technical replicates were applied from each sample and 3 biological replicate assays were run (n = 3). The 3D cell cultures were exposed to the toxicants for 72 h (exposure schemes are detailed in Figure 5A or Figure 6A or Figure 7A). Vehicle control was used as a regular medium supplemented with 0.1% DMSO.
ATP viability assay was performed with CellTiter-Glo® 3D Cell Viability Assay, according to the manufacturer’s protocol (Promega). Neurospheres were lysed with 100 μL CellTiter-Glo® 3D Reagent for 60 min at RT. Luminescence signal was recorded with a Thermo VarioScan Flash (Thermo Fisher Scientific) plate reader.
All results were analyzed using Prism 5 (GraphPad Software, La Jolla, CA, USA) and handled in Microsoft Office 2010 (Microsoft, Redmond, WA, USA) software. For normalization of the concentration response, the average values of positive control were used as 0% and the average of vehicle control served as 100%. Four parameter curve fitting methods were used to determine EC10 and EC50 values, where the data on the graphs represent the average of three biological replicates. The “n” value corresponds to the number of biological replicates for each tested concentration. Analysis of data is presented as the mean ± SEM. Significance of data was determined with paired T test for RT-qPCR (* p < 0.01) and with One-way ANOVA for concentration response (* p < 0.05; ** p < 0.01).

humans = settings: ref PubChem database (https://pubchem.ncbi.nlm.nih.gov/), cited from earlier work
[2] = tested on: in vitro multicellular cytotoxicity; settings: multicellular cytotoxicity "comptox" data; ref EPA's Chemical dashboard (https://comptox.epa.gov/dashboard); cited from earlier work
rat = tested on: rat; set-up: method as in PubChem database (https://pubchem.ncbi.nlm.nih.gov/); settings: ref PubChem database (https://pubchem.ncbi.nlm.nih.gov/), cited from earlier work
XBP1(S) = experiment: XBP1 assay of endoplasmic reticulum stress; format: cell-based, human; settings: listed as ROT
Protocol: Upon accumulation of unfolded proteins in the endoplasmic reticulum (ER), a 26-nucleotide fragment from the X-box binding protein 1 mRNA (XBP1(U)) is removed with a special splicing mechanism. This shorter mRNA (XBP1(S)) is a frequently used marker of ER-stress. To study the expression of XBP1(S), previously described primers and our own primers were used (Table S2). As a positive control, cells were treated with 5 µM and 10 µM Tunicamycin to induce ER-stress. RT-PCR reactions were performed and analyzed as above, using Phusion Hot Start II High-Fidelity DNA Polymerase and 20 ng of the cDNA samples.

LUHMES cells [3] = settings: cited from earlier work
[4] = tested on: hiPSC-derived 3D neurospheres; experiment: TUNEL apoptosis assay on cryosectioned 3D neurospheres; format: cell-based, human; settings: 0.5 µM for 72 h; average, in each stage (D21, D28, D42)
Protocol: Embedding and cryosectioning of 3D samples were performed as above. To detect apoptotic activity, the DeadEnd™ Colorimetric TUNEL System (Promega) was used on the middle cryosections (highest diameter) of the spheroids, following the instructions of the manufacturer. In brief, apoptosis was detected by immersing the slides in PBS for 5 min (at RT), adding 20 μg/mL Proteinase K solution and incubating for 10–30 min (at RT). After 5–10 min treatment in Equilibration buffer, recombinant terminal deoxynucleotidyl transferase (rTdT) was added to the reaction mixture. Next, the sections were incubated for 60 min at 37 °C inside of a humidified chamber to allow the end-labelling reaction to occur. The reaction was terminated by immersing the slides in saline-sodium citrate for 15 min (RT). Endogenous peroxidases were blocked by immersing the slides in 0.3% hydrogen peroxide in PBS for 3–5 min (RT). Streptavidin-HRP was added to slides, incubated for 30 min (RT), stained with diaminobenzidine (DAB) solution for 5 min until a light brown background appeared. For hematoxylin–eosin (HE) staining Mayer’s Hematoxylin solution was used for 3 min. […] Five Ctrl and five ROT-treated spheroids were randomly selected, and middle sections were analyzed from each differentiation stage (D21, D28, and D42) samples in three experiments (n = 3).

LUHMES cells [5] = settings: LUHMES cells exposed; literature value, reference not given; cited from earlier work
[6] = D21 3D neurospheres, 72 h exposure
[7] = D21 stage, 72 h exposure, investigated concentration range
[8] = D28 3D neurospheres, 72 h exposure
[9] = D42 3D neurospheres, 72 h exposure
[10] = read-out: EC10 (cell viability)
[11] = read-out: EC25 (cell viability)
[12] = read-out: EC50 (cell viability)
[13] = D21 3D neurospheres, 72 h exposure, read-out: EC10 (cell viability) (converted)
[14] = D21 3D neurospheres, 72 h exposure, read-out: EC25 (cell viability) (converted)
[15] = D21 3D neurospheres, 72 h exposure, read-out: EC50 (cell viability) (converted)
[16] = D28 3D neurospheres, 72 h exposure, read-out: EC10 (cell viability) (converted)
[17] = D28 3D neurospheres, 72 h exposure, read-out: EC25 (cell viability) (converted)
[18] = D28 3D neurospheres, 72 h exposure, read-out: EC50 (cell viability) (converted)
[19] = D42 3D neurospheres, 72 h exposure, read-out: EC10 (cell viability) (converted)
[20] = D42 3D neurospheres, 72 h exposure, read-out: EC25 (cell viability) (converted)
[21] = D42 3D neurospheres, 72 h exposure, read-out: EC50 (cell viability) (converted)

[Cl][Hg][Cl] [Mercury(II) chloride]
EC10 (cell viability) [1, 6]: 1.1 log µM
EC25 (cell viability) [1, 6]: 1.5 log µM
EC50 (cell viability) [1, 6]: 1.87 log µM
Effect on viability of 3D neurospheres (in words) [1, 7]: caused maximum cell death
EC10 (cell viability) [1, 8]: 1.4 log µM
EC25 (cell viability) [1, 8]: 1.60 log µM
EC50 (cell viability) [1, 8]: 1.83 log µM
EC10 (cell viability) [1, 9]: 1.34 log µM
EC25 (cell viability) [1, 9]: 1.54 log µM
EC50 (cell viability) [1, 9]: 1.74 log µM
Probable oral lethal dose in humans (humans; oral): 5 to 50 mg/kg
In vitro cytotoxicity limit [2]: 1.37 µM

CC(=O)Nc1ccc(O)cc1 [Paracetamol, 4′-Hydroxyacetanilide]
LD50 (rat; oral): 2400 mg/kg
EC50 (cell viability) [1]: > 2 log µM
Effect on viability of 3D neurospheres (in words) [1]: minimal effect on the viability
EC10 [1, 10]: > 100 µM
EC25 [1, 11]: > 100 µM
EC50 [1, 12]: > 100 µM
Acute overdose at which hepatic toxicity occurred in humans (humans): > 10 g

C[n+]1ccc(-c2cc[n+](C)cc2)cc1 [Paraquat, 1,1′-Dimethyl-4,4′-bipyridinium dichloride hydrate]
Effect on viability of 3D neurospheres (in words) [1, 7]: caused maximum cell death
EC10 [1, 13]: 14.1 µM
EC25 [1, 14]: 33.1 µM
EC50 [1, 15]: 77.6 µM
EC10 [1, 16]: 22.4 µM
EC25 [1, 17]: 46.8 µM
EC50 [1, 18]: 95.5 µM
EC10 [1, 19]: 12.3 µM
EC25 [1, 20]: 27.5 µM
EC50 [1, 21]: 61.7 µM
Probable oral lethal dose in humans (humans; oral): • - Herbicide; • - neurotoxic: occupational exposures leading to Parkinson’s disease [74]; • - widely investigated neurotoxic mechanism [75, 76]; and • - probable oral lethal dose in humans is 35 mg/kg.

CO[C@H]1/C=C/O[C@@]2(C)Oc3c(C)c(O)c4c(O)c(c(/C=N/N5CCN(C)CC5)c(O)c4c3C2=O)NC(=O)/C(C)=C\C=C\[C@H](C)[C@H](O)[C@@H](C)[C@@H](O)[C@@H](C)[C@H](OC(C)=O)[C@@H]1C [Rifampicin, 3-(4-Methylpiperazinyliminomethyl)rifamycin]
LD50 (rat; route not given): 1570 mg/kg
EC50 (cell viability) [1]: > 2 log µM
Effect on viability of 3D neurospheres (in words) [1]: reduced the viability
EC10 [1, 10]: > 100 µM
EC25 [1, 11]: > 100 µM
EC50 [1, 12]: > 100 µM
Probable lethal oral dose in humans (humans; oral): 14 to 60 g

C=C(C)[C@H]1Cc2c(ccc3c2O[C@@H]2COc4cc(OC)c(OC)cc4[C@@H]2C3=O)O1 [Rotenone]
ER-stress inducing effect (XBP1 assay) (XBP1(S)): no ER-stress inducing effect
EC10 ([1]; read-out: EC10 (cell viability), D21 3D neurospheres, 72 h exposure): 0.0129 µM
EC10 ([1]; read-out: EC10 (cell viability), D28 3D neurospheres, 72 h exposure): 0.00646 µM
EC10 ([1]; read-out: EC10 (cell viability), D42 3D neurospheres, 72 h exposure): 0.00447 µM
EC25 ([1]; read-out: EC25 (cell viability), D21 3D neurospheres, 72 h exposure): 0.0562 µM
EC25 ([1]; read-out: EC25 (cell viability), D28 3D neurospheres, 72 h exposure): 0.0347 µM
EC25 ([1]; read-out: EC25 (cell viability), D42 3D neurospheres, 72 h exposure): 0.0331 µM
EC50 ([1]; read-out: EC50 (cell viability), D21 3D neurospheres, 72 h exposure): 0.245 µM
EC50 ([1]; read-out: EC50 (cell viability), D28 3D neurospheres, 72 h exposure): 0.182 µM
EC50 ([1]; read-out: EC50 (cell viability), D42 3D neurospheres, 72 h exposure): 0.24 µM
Neurite outgrowth of LUHMES cells (in words) (LUHMES cells [3]): prominent neurite growth inhibition
Probable lethal dose in human (humans): 300 to 500 mg/kg
Increase in the apoptotic cell number compared to the control [4]: 15%
In vitro cytotoxicity limit [2]: 0.22 µM

CCCC(CCC)C(=O)O [Valproic acid, 2-Propylpentanoic acid]
EC50 (LUHMES cells [5]): > 100 µM
EC50 (cell viability) [1, 6]: > 2.6 log µM
Effect on viability of 3D neurospheres (in words) [1, 7]: minimal effect on the viability
EC10 [1, 13]: > 398 µM
EC25 [1, 14]: > 398 µM
EC50 [1, 15]: > 398 µM
EC10 [1, 16]: > 398 µM
EC25 [1, 17]: > 398 µM
EC50 [1, 18]: > 398 µM
EC10 [1, 19]: > 398 µM
EC25 [1, 20]: > 398 µM
EC50 [1, 21]: > 398 µM
Effect on cell viability (in words) ([1]; investigated concentration range, D21, D28, D42 neurospheres): no detectable impact
Neurite outgrowth of LUHMES cells (in words) (LUHMES cells [3]): significant inhibition of neurite outgrowth

— article PMC7290365, “Human Induced Pluripotent Stem Cell-Derived 3D-Neurospheres Are Suitable for Neurotoxicity Screening” (Cells, 2020)
